# Source: patent publication US20170275302A1, “INHIBITORS OF THE RENAL OUTER MEDULLARY POTASSIUM CHANNEL” (Merck Sharp & Dohme Corp., priority 2014, published 2017)
# Biological target: T1, hROMK (hKir1.1) (Homo sapiens, UniProt P48048)
# T1 construct: expressed in transfected cells
# T1 sequence (P48048 1-391): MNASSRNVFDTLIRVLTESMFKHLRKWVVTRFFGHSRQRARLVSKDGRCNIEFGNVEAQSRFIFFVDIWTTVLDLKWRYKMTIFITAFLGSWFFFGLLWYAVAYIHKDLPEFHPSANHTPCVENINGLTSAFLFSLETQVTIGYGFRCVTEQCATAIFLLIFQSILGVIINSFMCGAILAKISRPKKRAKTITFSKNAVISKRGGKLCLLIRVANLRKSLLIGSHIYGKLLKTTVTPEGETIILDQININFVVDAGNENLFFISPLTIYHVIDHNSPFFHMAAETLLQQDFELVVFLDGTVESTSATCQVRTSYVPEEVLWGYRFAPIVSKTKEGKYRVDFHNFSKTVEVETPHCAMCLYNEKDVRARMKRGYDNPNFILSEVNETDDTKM
# Experiment: Thallium Flux Assay (ROMK channel functional thallium flux assay, FLIPR-Tetra)
# Assay type: cell-based
# Conditions: HEK293 cells stably expressing hROMK (hKir1.1); FluxOR thallium flux, 30 min compound incubation; concentration inhibiting 50% of ROMK thallium flux signal
# Procedure: The following Thallium Flux Assay was performed on each of the final product compounds in the Examples.
# HEK293 cells stably expressing hROMK (hKir1.1) were grown at 37° C. in a 10% CO2 humidified incubator in complete growth media: Dulbecco's Modified Eagle Medium supplemented with non-essential amino acids, Penicillin/Streptomycin/Glutamine, G418 and FBS. At >80% confluency, the media was aspirated from the flask and rinsed with 10 mL calcium/magnesium-free phosphate buffered saline (PBS). 5 mL of 1× trypsin (prepared in Ca/Mg Free PBS) was added to T-225 flask and the flask was returned to 37° C./CO2 incubator for 2-3 minutes. To dislodge the cells, the side of the flask was gently banged with one's hand. The cells were completely titrated and then the cells were transferred to 25 mL complete media, centrifuged at 1,500 rpm for 6 min followed by resuspension in complete growth media, and the cell concentration was determined. For typical re-seeding, 4E6 cells/T-225 flask will attain >80% confluency in 4 days. Under ideal growth conditions and appropriate tissue culture practices, this cell line is stable for 40-45 passages.
# Compound Buffer (per microplate): 20 mL Probenecid/Assay Buffer; 0.3 mM ouabain (10 mM ouabain in water can be stored in amber bottle/aluminum foil at room temperature); Test compound
# Stimulant Buffer (prepared at 5× final concentration in 1× FluxOR™Chloride-Free Buffer): 7.5 mM thallium sulfate and 0.75 mM potassium sulfate (to give a final assay concentration of 3 mM Thallium/0.3 mM potassium). Store at 4° C. when not in use. If kept sterile, this solution is good for months.
# The ROMK channel functional thallium flux assay was performed in 384 wells, using the FLIPR-Tetra instrument. HEK-hKir1.1 cells were seeded in Poly-D-Lysine microplates and kept in a 37° C.-10% CO2 incubator overnight. On the day of the experiment, the growth media was replaced with the FluxOR™ reagent loading buffer and incubated, protected from light, at ambient temperature (23-25° C.) for 90 min. The loading buffer was replaced with assay buffer±test compound followed by 30 min incubation at ambient temperature, where the thallium/potassium stimulant was added to the microplate.
# • 1. Seed HEK-hKir1.1 cells (50 μl at 20,000 cells/well) in 384-well PDL coated Microplates • 2. Allow cells to adhere overnight in humidified 37° C./10% CO2 incubator • 3. Completely remove cell growth media from microplate and replace with 25 μl loading buffer • 4. Incubate Microplate at room temperature, protected form light, for 90 min • 5. Remove loading buffer and replace with 25 μl 1× Assay Buffer±test compound. • 6. Incubate microplate at room temperature, protected from light, for 30 min • 7. At FLIPR-Tetra 384: Add stimulant (thallium/potassium) solution to microplate and monitor fluorescence. Excitation=400 nm, Emission=460 & 580 nm. Collect data for ˜10 min.
# The fluorescence intensity of wells containing 3 μM of a standard control ROMK inhibitor of the present invention was used to define the ROMK-sensitive component of thallium flux. Fluorescence in the presence of test compounds was normalized to control values to provide % fluorescence change. IC50 values represent the concentration of compound that inhibited 50% of the ROMK thallium flux signal.
row,IC50 [µM],Compound
1,0.0477,CSCc1nnc2ccc(N3CCC4(CCN(C[C@H](O)c5ccc6c(c5C)COC6=O)CC4)C3)nn12 [Example 11]
2,0.427,Cc1c([C@@H](O)CN2CCC3(CC2)CCN(c2ccc4sccc4n2)C3=O)ccc2c1COC2=O [Example 34]
3,0.261,"Cc1c([C@@H](O)CN2CCC3(CC2)CCN(c2cc4cncnc4s2)C3)ccc2c1COC2=O [Example 28, (R)-5-(1-Hydroxy-2-(2-(thieno[2,3-d]pyrimidin-6-yl)-2,8-diazaspiro[4.5]decan-8-yl)ethyl)-4-methylisobenzofuran-1 (3H)-one]"
4,0.248,Cc1nc(C(O)CN2CCC3(CC2)CC(=O)N(c2ccc4nncn4n2)C3)ccc1C#N (stereo not drawn) [Example 57]
5,0.0292,"Cc1c([C@@H](O)CN2CCC3(CC2)CCN(c2ccn4nncc4c2)C3=O)ccc2c1COC2=O [Example 88, (R)-2-([1,2,3]triazolo[1,5-a]pyridin-5-yl)-8-(2-hydroxy-2-(4-methyl-1-oxo-1,3-dihydroisobenzofuran-5-yl)ethyl)-2,8-diazaspiro[4.5]decan-1-one]"
6,0.0192,"Cc1c([C@@H](O)CN2CCC3(CC2)CCN(c2ccc4nonc4n2)C3)ccc2c1COC2=O [Example 95, (R)-5-(2-(2-([1,2,5]oxadiazolo[3,4-b]pyridin-5-yl)-2,8-diazaspiro[4.5]decan-8-yl)-1-hydroxyethyl)-4-methylisobenzofuran-1(3H)-one]"
7,0.336,Cc1c([C@@H](O)CN2CCC3(CC2)CC(=O)N(c2cnn4ncccc24)C3)ccc2c1COC2=O [Example 41]
8,0.0185,Cc1c([C@@H](O)CN2CCC3(CC2)CCN(c2snc4ccncc24)C3=O)ccc2c1COC2=O [Example 85]
9,0.25,COc1cc([C@@H](O)CN2CCC3(CC2)CCN(c2nn4cnnc4s2)C3)ncc1C#N [Example 72]
10,0.116,Cc1c([C@@H](O)CN2CCC3(CC2)CCN(c2ccc4nncn4n2)C3=O)ccc2c1COC2=O [Example 74]
11,0.361,N#Cc1ccc(C(O)CN2CCC3(CC2)CCN(c2ccc4nncn4n2)C3)nc1 (stereo not drawn) [Example 43]
12,0.287,Cc1c([C@@H](O)CN2CCC3(CC2)CCN(c2ccc4nnc(C(F)(F)F)n4n2)C3)ccc2c1COC2=O [Example 15]
13,0.0728,Cc1cc(C#N)cnc1C(O)CN1CCC2(CCN(c3ccc4nncn4n3)CC2)C1 (stereo not drawn) [Example 66]
14,0.147,Cc1nc(C(O)CN2CCC3(CC2)CCN(c2ccc4nncn4n2)C3)ccc1C#N (stereo not drawn) [Example 47]
15,0.208,Cc1cc(C#N)cnc1C(O)CN1CCC2(CC1)CCN(c1ccc3nncn3n1)C2 (stereo not drawn) [Example 49]
16,0.0747,Cc1c([C@@H](O)CN2CCC3(CC2)CCN(c2ccc4nnc(C)n4n2)C3)ccc2c1COC2=O [Example 19]
17,0.284,COc1cc2ccc(N3CCC4(CCN(C[C@H](O)c5ccc6c(c5C)COC6=O)CC4)C3=O)nc2cn1 [Example 33]
18,0.0978,CCc1nnc2ccc(N3CCC4(CCN(C[C@H](O)c5ccc6c(c5C)COC6=O)CC4)C3)nn12 [Example 16]
19,0.208,"COc1cc([C@@H](O)CN2CCC3(CC2)CCN(c2ccc4nnnn4n2)C3)ncc1C#N [Example 71, (S)-6-(1-hydroxy-2-(2-(tetrazolo[1,5-b]pyridazin-6-yl)-2,8-diazaspiro[4.5]decan-8-yl)ethyl)-4-methoxynicotinonitrile]"
20,0.0459,"COc1cc([C@@H](O)CN2CCC3(CC2)CCN(c2ccc4nncn4n2)C3)ncc1C#N [Example 45, 6-(2-(2-([1,2,4]triazolo[4,3-b]pyridazin-6-yl)-2,8-diazaspiro[4.5]decan-8-yl)-1-hydroxyethyl)-4-methoxynicotinonitrile]"

row,IC50 [µM],Compound
1,0.108,"COc1cc([C@H](CN2CCC3(CC2)CCN(c2ccc4nncn4n2)C3)OC(C)=O)ncc1C#N [Example 23, (S)-2-(2-([1,2,4]triazolo[4,3-β]pyridazin-6-yl)-2,8-diazaspiro[4.5]decan-8-yl)-1-(5-cyano-4-methoxypyridin-2-yl)ethyl acetate]"
2,0.117,Cc1c([C@@H](O)CN2CCC3(CC2)CCN(c2cc4cnccc4s2)C3=O)ccc2c1COC2=O [Example 37]
3,0.486,Cc1c([C@@H](O)CN2CCC3(CC2)CCN(c2ncc4c(C)n[nH]c4n2)C3)ccc2c1COC2=O [Example 17]
4,0.0488,Cc1c([C@@H](O)CN2CCC3(CC2)CCN(c2cc4ccncc4s2)C3=O)ccc2c1COC2=O [Example 32]
5,0.172,Cc1c([C@@H](O)CN2CCC3(CC2)CCN(c2ccc4cnnn4c2)C3=O)ccc2c1COC2=O [Example 86]
6,0.129,N#Cc1ccc(C(O)CN2CCC3(CCN(c4ccc5nncn5n4)CC3)C2)nc1 (stereo not drawn) [Example 62]
7,0.246,Cc1c([C@@H](O)CN2CCC3(CC2)CCN(c2ccn4nccc4n2)C3)ccc2c1COC2=O [Example 8]
8,0.0359,"Cc1c(F)c(C#N)cc(F)c1C(O)CN1CCC2(CC1)CCN(c1ccc3nncn3n1)C2 (racemic) [Example 54, 4-(2-(2-([1,2,4]triazolo[4,3-b]pyridazin-6-yl)-2,8-diazaspiro[4.5]decan-8-yl)-1-hydroxyethyl)-2,5-difluoro-3-methylbenzonitrile]"
9,0.339,Cc1c([C@@H](O)CN2CCC3(CCCN(c4nccn5cnnc45)C3)C2)ccc2c1COC2=O (stereo partly drawn) [Example 18]
10,0.0427,"Cc1c([C@@H](O)CN2CCC3(CC2)CC(=O)N(c2ccc4nonc4c2)C3)ccc2c1COC2=O [Example 89, (R)-2-(benzo[c][1,2,5]oxadiazol-5-yl)-8-(2-hydroxy-2-(4-methyl-1-oxo-1,3-dihydroisobenzofuran-5-yl)ethyl)-2,8-diazaspiro[4.5]decan-3-one]"
11,0.745,"Cc1c([C@@H](O)CN2CCC3(CC2)CCN(c2nccn4nccc24)C3)ccc2c1COC2=O [Example 1, (R)-5-(1-hydroxy-2-(2-(pyrazolo[1,5-α]pyrazin-4-yl)-2,8-diazaspiro[4.5]decan-8-yl)ethyl)-4-methylisobenzofuran-1(3H)-one]"
12,0.0914,"Cc1c([C@@H](O)CN2CCC3(CC2)CN(c2ccc4c(c2C)COC4=O)C(=O)O3)ccc2c1COC2=O [Example 81, (R)-8-(2-hydroxy-2-(4-methyl-1-oxo-1,3-dihydroisobenzofuran-5-yl)ethyl)-3-(4-methyl-1-oxo-1,3-dihydroisobenzofuran-5-yl)-1-oxa-3,8-diazaspiro[4.5]decan-2-one]"
13,0.699,Cc1c([C@@H](O)CN2CCC3(CC2)CCN(c2nccn4ccnc24)C3)ccc2c1COC2=O [Example 91]
14,0.0326,Cc1c([C@@H](O)CN2CCC3(CC2)CCN(c2snc4ccccc24)C3=O)ccc2c1COC2=O [Example 82]
15,0.274,Cc1c([C@@H](O)CN2CCC3(CC2)CC(=O)N(c2ccc4nonc4n2)C3)ccc2c1COC2=O [Example 93]
16,0.78,COc1cc([C@H](O)CN2CCC3(CC2)CC(=O)N(c2ccc4nncn4n2)C3)ncc1C#N [Example 60]
17,0.458,"Cc1c([C@@H](O)CN2CCC3(CC2)CC(=O)N(c2cn4ncnc4cn2)C3)ccc2c1COC2=O [Example 39, (R)-2-([1,2,4]triazolo[1,5-a]pyrazin-6-yl)-8-(2-hydroxy-2-(4-methyl-1-oxo-1,3-dihydroisobenzofuran-5-yl)ethyl)-2,8-diazaspiro[4.5]decan-3-one]"
18,0.0339,Cc1c([C@@H](O)CN2CCC3(CC2)CCN(c2snc4cccnc24)C3=O)ccc2c1COC2=O [Example 83]
19,0.0983,Cc1c([C@@H](O)CN2CCC3(CC2)CCN(c2ccc4nonc4c2)C3)ccc2c1COC2=O [Example 90]
